From patent US11691986B2, “PTEFB inhibiting macrocyclic compounds” (Bayer Aktiengesellschaft, priority 2017, dated 2023)

Biological target: T1, CDK2/CycE (Homo sapiens, UniProt P24941)
T1 construct: GST; purchased ProQinase GmbH (Freiburg, Germany); host or cells: insect cells (Sf9)
Assay: CDK2/CycE high ATP kinase assay (TR-FRET)
Type: biochemical
Conditions: 2 mM ATP, Method 2b
Method: 2b. CDK2/CycE High ATP Kinase Assay
CDK2/CycE-inhibitory activity of compounds of the present invention at 2 mM adenosine-tri-phosphate (ATP) was quantified employing the CDK2/CycE TR-FRET (TR-FRET=Time Resolved Fluorescence Energy Transfer) assay as described in the following paragraphs.
Recombinant fusion proteins of GST and human CDK2 and of GST and human CycE, expressed in insect cells (Sf9) and purified by Glutathion-Sepharose affinity chromatography, were purchase from ProQinase GmbH (Freiburg, Germany). As substrate for the kinase reaction biotinylated peptide biotin-Ttds-YISPLKSPYKISEG (C-terminus in amid form) was used which can be purchased e.g. form the company JERINI peptide technologies (Berlin, Germany).
For the assay 50 nl of a 100 fold concentrated solution of the test compound in DMSO was pipetted into either a black low volume 384 well microtiter plate or a black 1536 well microtiter plate (both Greiner Bio-One, Frickenhausen, Germany), 2 μl of a solution of CDK2/CycE in aqueous assay buffer [50 mM Tris/HCl pH 8.0, 10 mM MgCl2, 1.0 mM dithiothreitol, 0.1 mM sodium ortho-vanadate, 0.01% (v/v) Nonidet-P40 (Sigma)] were added and the mixture was incubated for 15 min at 22° C. to allow pre-binding of the test compounds to the enzyme before the start of the kinase reaction. […] The concentration of CDK2/CycE was adjusted depending of the activity of the enzyme lot and was chosen appropriate to have the assay in the linear range, typical concentrations were about 10 ng/ml. The reaction was stopped by the addition of 3 μl of a solution of TR-FRET detection reagents (0.333 μM streptavidine-XL665 [Cisbio Bioassays, Codolet, France] and 1.67 nM anti-RB(pSer807/pSer811)-antibody from BD Pharmingen [#558389] and 2 nM LANCE EU-W1024 labeled anti-mouse IgG antibody [Perkin-Elmer, product no. AD0077, as an alternative a Terbium-cryptate-labeled anti-mouse IgG antibody from Cisbio Bioassays can be used]) in an aqueous EDTA-solution (167 mM EDTA, 0.2% (w/v) bovine serum albumin in 100 mM HEPES pH 7.5).
The resulting mixture was incubated 1 h at 22° C. to allow the formation of complex between the phosphorylated biotinylated peptide and the detection reagents. Subsequently the amount of phosphorylated substrate was evaluated by measurement of the resonance energy transfer from the Eu-chelate to the streptavidine-XL. Therefore, the fluorescence emissions at 620 nm and 665 nm after excitation at 350 nm was measured in a TR-FRET reader, e.g. a Pherastar (BMG Labtechnologies, Offenburg, Germany) or a Viewlux (Perkin-Elmer). The ratio of the emissions at 665 nm and at […] was taken as the measure for the amount of phosphorylated substrate. The data were normalised (enzyme reaction without inhibitor=0% inhibition, all other assay components but no enzyme=100% inhibition).

| IC50 [nM] | SMILES |
| --- | --- |
| 155 | CS(=N)(=O)Cc1cc2cc(c1)OCCCCNc1cc(ccc1F)-c1nc(ncc1F)N2 (racemic) [Example 2, (rac)-3,20-difluoro-10-[(S-methylsulfonimidoyl)methyl]-13-oxa-5,7,18,25-tetraazatetracyclo[17.3.1.1^2,6.1^8,12]pentacosa-1(23),2(25),3,5,8(24),9,11,19,21-nonaene] |
| 829 | CS(=N)(=O)Cc1cc2cc(c1)OCCCNc1cc(ccc1F)-c1nc(ncc1F)N2 (racemic) [Example 3, (rac)-3,19-difluoro-10-[(S-methylsulfonimidoyl)methyl]-13-oxa-5,7,17,24-tetraazatetracyclo[16.3.1.1^2,6.1^8,12]tetracosa-1(22),2(24),3,5,8(23),9,11,18,20-nonaene] |
| 464 | CC1CCCNc2cc(ccc2F)-c2nc(ncc2F)Nc2cc(CS(C)(=O)=O)cc(c2)O1 (racemic) [Example 8, (rac)-3,20-difluoro-14-methyl-10-[(methylsulfonyl)methyl]-13-oxa-5,7,18,25-tetraazatetracyclo[17.3.1.1^2,6.1^8,12]pentacosa-1(23),2(25),3,5,8(24),9,11,19,21-nonaene] |
| 855 | CC(C)(C)OC(=O)N=S(C)(=O)Cc1cc2cc(c1)OCCCCNc1cc(ccc1F)-c1nc(ncc1F)N2 (racemic) [Example 1, (rac)-tert-butyl [{[3,20-difluoro-13-oxa-5,7,18,25-tetraazatetracyclo[17.3.1.1^2,6.1^8,12]pentacosa-1(23),2(25),3,5,8(24),9,11,19,21-nonaen-10-yl]methyl}(methyl)oxido-λ^6-sulfanylidene]carbamate] |
